Test system: animal models
Experiment: animal models, oral dosing (earlier studies)
Assay type: in vivo
Settings: oral dose of 25 mg/Kg, previous studies
Text: For example, the mildly painful stimuli from scratching are effective in abolishing the itch sensation. In contrast, analgesics such as opioids can generate severe pruritis. The antagonistic interaction between pain and itch can be exploited in pruritis therapy, and current research concentrates on the identification of common targets for future analgesic and antipruritis therapy. […] Accordingly, COMPOUND A, as an enantiomer or a pharmaceutically acceptable salt thereof, can also be useful for treating pruritis.
Following paw withdrawal baseline measurements, animals were randomly divided into 4 different test groups (N=8 animals/group), including a vehicle control group for oral dosage, a vehicle control group for topical dosage, and two treatment groups. For the oral dosage groups, animals were dosed by oral gavages after baseline measurement. […] For the topical dosage groups, 50 mg of the test composition was applied on the ipsilateral ankle and foot. […] Von Frey withdrawal thresholds were measured as the mean of several independent determinations made within 1-2 minutes of each other on the affected paw of each animal. Withdrawal measurements were taken 60 minutes post dosing for the oral dosage group and 30 minutes post-dosing for the topical dosage group, representing their respective peak efficacy time points as determined in previous studies.

## O=C1N(Cc2ccc(C(F)(F)F)o2)c2ccccc2[C@]12COc1cc3c(cc12)OCO3 [COMPOUND A, (S)-1′-{[5-(trifluoromethyl)furan-2-yl]methyl}spiro[furo[2,3-f][1,3]benzodioxole-7,3′-indol]-2′(1′H)-one]
  reversal of pain response: approximately half-maximal reversal of pain response
